Laboratory results taken from patent US20250122190A1, “HALOGEN-SUBSTITUTED PYRIDAZINONE COMPOUND AND APPLICATION THEREOF” (MEDSHINE DISCOVERY INC., priority 2021, published 2025).

Biological target: T1, hTRPC5-T478C (Homo sapiens, UniProt Q9UL62)
T1 sequence (Q9UL62 1-973): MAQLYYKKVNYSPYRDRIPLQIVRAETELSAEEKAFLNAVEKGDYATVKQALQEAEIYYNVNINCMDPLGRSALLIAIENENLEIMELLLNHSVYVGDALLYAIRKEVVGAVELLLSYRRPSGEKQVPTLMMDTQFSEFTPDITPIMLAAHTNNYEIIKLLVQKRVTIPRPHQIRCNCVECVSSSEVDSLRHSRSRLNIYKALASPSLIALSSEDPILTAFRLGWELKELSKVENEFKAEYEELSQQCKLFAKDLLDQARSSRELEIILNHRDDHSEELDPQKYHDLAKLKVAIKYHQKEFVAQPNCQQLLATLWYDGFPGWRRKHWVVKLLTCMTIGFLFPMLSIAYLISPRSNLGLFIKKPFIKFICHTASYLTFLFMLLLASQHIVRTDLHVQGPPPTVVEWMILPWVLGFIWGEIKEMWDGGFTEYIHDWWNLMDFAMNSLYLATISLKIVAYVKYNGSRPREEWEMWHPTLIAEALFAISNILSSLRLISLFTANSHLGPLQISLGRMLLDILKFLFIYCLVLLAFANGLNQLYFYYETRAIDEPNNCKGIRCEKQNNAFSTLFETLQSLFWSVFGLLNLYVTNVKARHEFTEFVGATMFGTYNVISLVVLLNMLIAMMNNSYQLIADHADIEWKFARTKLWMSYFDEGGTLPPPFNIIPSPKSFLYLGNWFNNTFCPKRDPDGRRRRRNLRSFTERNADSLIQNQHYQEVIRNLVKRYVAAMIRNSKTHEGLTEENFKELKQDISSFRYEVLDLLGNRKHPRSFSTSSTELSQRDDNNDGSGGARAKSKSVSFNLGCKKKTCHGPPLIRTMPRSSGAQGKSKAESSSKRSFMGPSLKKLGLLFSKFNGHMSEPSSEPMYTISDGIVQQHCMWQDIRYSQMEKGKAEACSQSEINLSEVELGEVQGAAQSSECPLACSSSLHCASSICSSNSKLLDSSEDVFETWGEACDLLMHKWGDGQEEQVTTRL
Assay: hTRPC5-T478C patch clamp IC50 assay
Type: cell-based
Settings: hTRPC5-T478C-HEK cells, whole-cell patch clamp, Englerin A agonist
Protocol: Cell culture: hTRPC5-T478C-HEK cells were cultured in a humid environment in 5% CO2 at 37° C.
Cell culture medium ingredients: • DMEM, Supplier: Gibco, Catalog No. 11965-092; • FBS, Supplier: Gibco, Catalog No. 10099-141C, Concentration: 10%; • Pen/Strep, Supplier: Invitrogen, Catalog No. 15140-122, Concentration: 1%; • Zeocin, Supplier: Invitrogen, Catalog No. R25005, Concentration: 200 μg/mL; • Blasticidin S, Supplier: Invitrogen, Catalog No. R21001, Concentration: 5 μg/mL.
In general, the TRPC5-T478C cell line was passaged three times weekly. The dilution factor for each passage was 1:3. Once the cells reached about 80% confluence in the T-75 flask, the cell line was digested with trypsin for about 1 minute and the cell suspension was removed from the flask with a pipette. Depending on the dilution ratio, the removed cell suspension would be transferred to another T-75 flask containing cell culture medium. Note that in order to maintain the logarithmic growth of the cells, the confluence of the cells should be maintained at the subconfluent stage and the cells should be passaged once every 2 to 3 days depending on the proliferation rate of the cell line.
(1) Extracellular fluid: sodium chloride (145 mmol/L), potassium chloride (4 mmol/L), magnesium chloride (1.5 mmol/L), glucose (10 mmol/L), hydroxyethyl piperazineethanesulfonic acid (HEPES, 10 mmol/L). The extracellular fluid was adjusted to pH 7.4 with NaOH, and the osmotic pressure was adjusted to about 305 mOsm/L with pure water or sucrose.
(2) Intracellular fluid: cesium chloride (140 mmol/L), ethylene glycol diethyl ether diamine tetraacetic acid (EGTA, 1 mmol/L), magnesium chloride (2 mmol/L), glucose (10 mmol/L), hydroxyethyl piperazineethanesulfonic acid (HEPES, 10 mmol/L). The intracellular fluid was adjusted to pH 7.2 with […], and the osmotic pressure was adjusted to about 295 mOsm/L with pure water or sucrose.
(3) The extracellular fluid was required to be formulated once a week, and the intracellular fluid was required to be subpackaged and stored at −20° C. after formulation.
Positive reference compounds Englerin A and 2-aminoethoxydiphenyl borate (2-APB) were dissolved in 100% DMSO and stored as a 10 mM working solution after formulation. The test compounds were dissolved in 100% DMSO and stored as a 10 mM working solution after formulation. The final concentration of DMSO in the test solution should be less than 0.3%.
Whole-cell patch clamping was performed at room temperature. The electrical signals recorded using an EPC 10 USB amplifier (HEKA Elektronik, Germany) were low-pass filtered at 3 kHz and finally recorded in PatchMaster 2×90.5 software (HEKA Elektronik, Germany). In this step, the quality control standards were that the cell high-resistance seal was formed at a value greater than 500 MOhms and the detection current was greater than 0.3 nA.
The recording electrode was a borosilicate glass capillary (GC150tF-10, Harvard Apparatus Co., UK), which was pulled by a vertical puller (NARISHIGE PC-10, Japan) and polished. In this step, the quality control standard was that the electrode resistance was between 2 to 5 MΩ.
During whole-cell patch clamp recordings, a continuous filling system (BT100-2J, LongerPump, China) was used to continuously perfuse extracellular fluid. The filling system was mounted on the stage of an upright microscope (FN—S2N, Nikon, Japan), and the filling tip was manually positioned under the microscope.
The voltage instructions for hTRPC5-T478C current amplitude detection were as follows: the cells were clamped as follows: the clamping potential changed in a stepped manner from −40 mV to −80 mV (duration: 50 ms); then the clamping voltage ramped up to +80 mV, and the whole process lasted for 200 ms; then clamping was performed at +80 mV for 50 ms, and finally, the voltage returned to the clamping potential of −40 mV. […]

Structure (SMILES) | IC50 [nM]
O=c1[nH]ncc(N2CCc3c(nc(CO)nc3Sc3ccc(F)cc3C(F)(F)F)C2)c1Cl [Compound WX012] | 16.6
O=c1[nH]ncc(N2CCc3c(ncnc3Sc3ccc(F)cc3C(F)(F)F)C2)c1Cl [Compound WX002] | 115
O=c1[nH]ncc(N2CCc3c(ncnc3Oc3ccc(F)cc3C(F)(F)F)C2)c1Br [Compound WX009] | 304
COCc1nc2c(c(Oc3ccc(F)cc3C(F)(F)F)n1)CCN(c1cn[nH]c(=O)c1Cl)C2 [Compound WX011] | 191
O=c1[nH]ncc(N2CCc3c(ncnc3Oc3ccc(F)cc3Br)C2)c1Cl [Compound WX004] | 91.4
CC(F)(F)c1cc(F)ccc1Oc1ncnc2c1CCN(c1cn[nH]c(=O)c1Cl)C2 [Compound WX010] | 196
Nc1nc2c(c(Sc3ccc(F)cc3C(F)(F)F)n1)CCN(c1cn[nH]c(=O)c1Cl)C2 [Compound WX013] | 15.3
